Patent US8067424B2, “Selective inhibitors for cyclin-dependent kinases” (Emory University, priority 2007, dated 2011)

Columns and labels:
CAK (CDK7) = CAK (CDK7) (Homo sapiens, UniProt P50613); assay: 32P incorporation kinase assay, CAK
MCF-7 cell line = assay: cells; type: cell-based; details: Homo sapiens, MCF-7, SRB assay, 24 hours; for LC50 (concentration causing 50% net cell kill) / IC (total growth inhibition): MCF7, 24 h; for IC (total growth inhibition): read-out: TGI; for IC50: MCF7, mean of three experiments, read-out: IC50
CDK4 [1] = target: T1, CDK4 (Homo sapiens, UniProt P11802); assay: CDK4 in vitro kinase inhibition (protocol similar to Example 14); type: biochemical; details: for remaining activity at 0.1 µM: 100 nM, mean of three (standard deviation), read-out: CDK4 % remaining kinase activity after incubation with 100 nM of compound; for IC50: Table 7, mean of three experiments
Method: (§1) Prepared test compounds, prepared at concentrations of 1000, 100, 10, 1 and 0.1 μM. Diluted 1 in 40 in ddH2O and added 1 μl of test compound or DMSO (controls). • 3. Incubated at 30° C. for 30 mins in a water bath. • 4. Added 10 µl of ATP […] per reaction to get a final concentration of 2 μM ATP. • 5. Made up to 25 μl total volume with ddH2O • 6. Incubated for 20 min at 30° C. in a water bath • 7. Used the PKLight Kinase assay (Cambrex, UK), add to each reaction 10 μl of stop reaction and mix thoroughly. Incubated at room temp for 10 min. • 8. Added 20 μ1 Luciferase reaction mixture (Cambrex, UK) per reaction, and further incubated at room temp for 10 mins and determined luciferase activities according to manufacturer's methods. Kinase reactions were added to 96 well microplates and luciferase activities determined using a Packard TopCount NXT™ luminescent counter (TopCount 9904). The luminometer was programmed to take a read time of 0.1 integrated reading and emission of light was detectable at 560 nm. • 9. All kinase inhibition assays were carried out in triplicate. As the bioluminescent signal is inversely proportional to kinase activity, all values were deducted from the no enzyme control. These values were then plotted utilizing the enzyme control as a reference to 100% activity and compared to all other values.
(§2) This example provides in vitro kinase inhibition data for various compounds within the scope of the invention versus CDK 2, CDK 4, CDK, 5, CDK 7 and CDK 9. The protocol was similar to that shown in Example 14 Inhibition of the protein kinases was performed in triplicate using each compound at 100 nM.
(§3) This example provides in vitro kinase inhibition data for various compounds within the scope of the invention versus CDK 2, CDK 4, CDK, 5, CDK 7 and CDK 9.

MCF-7 = assay: Growth assay (SRB, 72 hours); type: cell-based; details: MCF-7, 72 hours; for IC50 / CC50: Homo sapiens, MCF7; for IC50: read-out: Growth Inhibition MCF7 IC50; for CC50: read-out: Growth Inhibition MCF7 LC50
Method: Growth assay: The cell lines (MCF-7 and MDA-MB-231; purchased from ATCC, USA) were routinely passaged in Dulbecco's Modified Eagle's Medium (DMEM), supplemented with 10% fetal calf serum (FCS) and kept in a 37° C. incubator with 5% CO2. For the growth assay, 6000 cells were seeded into each well of 96-well plates in DMEM containing 10% FCS. Compounds prepared in DMSO were added to the medium at concentrations ranging from 0.4-100 μM. The cells were incubated for a further 72 hours, at which time they were fixed by the addition of 100 μl/well of ice-cold 40% TCA. The plates were left for 1 hour, washed in water and 100 μl of 0.4% (w/v) sulphorhodamine (SRB; Sigma-Aldrich, UK) prepared in 1% acetic acid was added. Plates were washed in 1% acetic acid to remove excess SRB reagent, air dried and bound dye was solubilized by the addition of 100 μl of 10 mM Tris base. The plates were read at 492 nm using a plate reader.

CDK 5 = CDK 5 (Homo sapiens, UniProt Q00535); assay: CDK5 in vitro kinase inhibition (protocol similar to Example 14); type: biochemical; details: 100 nM; mean of three (standard deviation); read-out: CDK5 % remaining kinase activity after incubation with 100 nM of compound
Method: as §1, §2, §3

CDK2/cyclin A complex = target: T2, CDK2/cyclin A complex (Homo sapiens, UniProt P24941); assay: CDK2/cyclin A kinase assay (as for CDK7); type: biochemical; details: for remaining activity at 0.1 µM: 100 nM, mean of three (standard deviation), read-out: CDK2 % remaining kinase activity after incubation with 100 nM of compound
T2 construct: purchased Proqinase GmbH, Germany
In short: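 Run as the CDK7 protocol with 50 ng CDK2/cyclin A or 100 ng CDK9/cyclin T; compound 30 min at 30 °C, then 2 μM ATP final for 20 min at 30 °C. ATP depletion by luciferase luminescence (PKLight), triplicate, normalised to no-enzyme and enzyme controls.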

CDK4 [2] = target: T1, CDK4; assay: 32P incorporation kinase assay, CDK4
CDK9/cyclin T complex = target: T3, CDK9/cyclin T complex (Homo sapiens, UniProt P50750); assay: CDK9/cyclin T kinase assay (as for CDK7); type: biochemical; details: 100 nM; mean of three (standard deviation); read-out: CDK9 % remaining kinase activity after incubation with 100 nM of compound
T3 construct: purchased Proqinase GmbH, Germany
Method: as §1
Inhibition of CDK2 was assessed using 50 ng CDK2/cyclin A complex (Proqinase GmbH, Germany), as above for CDK7 Inhibition of CDK9 was assessed using 100 ng CDK9/cyclin T complex (Proqinase GmbH, Germany), as above for CDK7.

T1 sequence (P11802 whole entry): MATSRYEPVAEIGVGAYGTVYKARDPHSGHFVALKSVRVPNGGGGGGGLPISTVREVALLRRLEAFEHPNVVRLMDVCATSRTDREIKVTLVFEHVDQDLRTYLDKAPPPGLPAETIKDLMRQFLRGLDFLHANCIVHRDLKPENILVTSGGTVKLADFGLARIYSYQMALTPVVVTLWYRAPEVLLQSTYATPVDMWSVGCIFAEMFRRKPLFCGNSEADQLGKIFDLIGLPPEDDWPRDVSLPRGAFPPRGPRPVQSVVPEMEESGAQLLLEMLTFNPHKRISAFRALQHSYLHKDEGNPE
T1 sequence (P24385 whole entry partner): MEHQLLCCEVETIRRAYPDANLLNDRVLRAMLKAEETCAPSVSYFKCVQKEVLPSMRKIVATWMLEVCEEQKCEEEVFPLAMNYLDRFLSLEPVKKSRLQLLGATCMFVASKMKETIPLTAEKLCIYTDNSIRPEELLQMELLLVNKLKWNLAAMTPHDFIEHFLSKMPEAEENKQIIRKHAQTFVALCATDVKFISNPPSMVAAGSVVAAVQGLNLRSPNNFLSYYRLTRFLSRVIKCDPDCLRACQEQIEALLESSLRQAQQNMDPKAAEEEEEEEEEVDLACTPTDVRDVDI
Chain of CDK 5 (Q00535 whole entry): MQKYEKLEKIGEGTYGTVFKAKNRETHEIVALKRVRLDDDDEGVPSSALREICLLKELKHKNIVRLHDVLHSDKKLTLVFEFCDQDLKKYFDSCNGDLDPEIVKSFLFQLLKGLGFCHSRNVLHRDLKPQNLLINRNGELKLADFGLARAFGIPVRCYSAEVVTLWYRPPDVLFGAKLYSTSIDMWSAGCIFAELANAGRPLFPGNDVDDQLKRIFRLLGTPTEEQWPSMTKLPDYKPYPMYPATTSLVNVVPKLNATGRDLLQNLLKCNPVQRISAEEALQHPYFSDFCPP
Chain of CDK 5 (Q15078 whole entry partner): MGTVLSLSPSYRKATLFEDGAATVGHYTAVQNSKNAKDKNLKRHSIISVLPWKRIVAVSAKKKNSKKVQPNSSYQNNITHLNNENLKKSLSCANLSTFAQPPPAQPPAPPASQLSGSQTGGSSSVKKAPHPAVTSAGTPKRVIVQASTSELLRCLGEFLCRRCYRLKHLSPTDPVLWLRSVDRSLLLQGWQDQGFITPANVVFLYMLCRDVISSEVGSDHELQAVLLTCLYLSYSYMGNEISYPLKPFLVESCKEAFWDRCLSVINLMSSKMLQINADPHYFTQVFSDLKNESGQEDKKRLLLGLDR
T3 sequence (P50750 whole entry): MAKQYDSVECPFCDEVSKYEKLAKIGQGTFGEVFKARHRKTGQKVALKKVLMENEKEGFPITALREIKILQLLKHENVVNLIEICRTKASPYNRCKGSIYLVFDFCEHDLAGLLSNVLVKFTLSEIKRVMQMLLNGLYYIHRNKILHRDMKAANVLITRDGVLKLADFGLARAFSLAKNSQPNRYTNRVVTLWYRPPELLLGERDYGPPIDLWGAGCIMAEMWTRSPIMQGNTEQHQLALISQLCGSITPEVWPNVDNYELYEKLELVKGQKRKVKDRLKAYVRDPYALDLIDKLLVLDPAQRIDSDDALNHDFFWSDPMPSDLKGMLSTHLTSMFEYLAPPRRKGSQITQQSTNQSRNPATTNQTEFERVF
T3 sequence (O60563 whole entry partner): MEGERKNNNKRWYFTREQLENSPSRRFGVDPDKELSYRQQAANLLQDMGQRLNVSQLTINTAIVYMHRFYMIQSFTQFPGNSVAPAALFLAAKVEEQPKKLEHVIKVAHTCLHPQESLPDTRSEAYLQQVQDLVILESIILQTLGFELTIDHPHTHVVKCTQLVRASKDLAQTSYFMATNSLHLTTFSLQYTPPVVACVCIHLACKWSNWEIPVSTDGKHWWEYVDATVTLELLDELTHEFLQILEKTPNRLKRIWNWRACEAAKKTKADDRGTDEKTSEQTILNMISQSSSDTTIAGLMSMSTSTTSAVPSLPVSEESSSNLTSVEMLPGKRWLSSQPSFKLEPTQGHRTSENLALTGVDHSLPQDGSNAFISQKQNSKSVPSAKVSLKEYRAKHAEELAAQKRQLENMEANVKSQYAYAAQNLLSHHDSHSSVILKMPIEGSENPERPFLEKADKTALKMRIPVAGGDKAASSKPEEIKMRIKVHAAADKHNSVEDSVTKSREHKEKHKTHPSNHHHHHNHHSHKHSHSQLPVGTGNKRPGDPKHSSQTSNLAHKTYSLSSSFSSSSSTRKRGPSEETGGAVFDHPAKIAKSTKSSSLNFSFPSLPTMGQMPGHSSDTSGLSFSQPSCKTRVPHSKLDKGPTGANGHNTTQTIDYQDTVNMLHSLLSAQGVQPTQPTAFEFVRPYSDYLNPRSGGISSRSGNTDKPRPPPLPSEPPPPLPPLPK
Chain of CAK (CDK7) (P50613 whole entry): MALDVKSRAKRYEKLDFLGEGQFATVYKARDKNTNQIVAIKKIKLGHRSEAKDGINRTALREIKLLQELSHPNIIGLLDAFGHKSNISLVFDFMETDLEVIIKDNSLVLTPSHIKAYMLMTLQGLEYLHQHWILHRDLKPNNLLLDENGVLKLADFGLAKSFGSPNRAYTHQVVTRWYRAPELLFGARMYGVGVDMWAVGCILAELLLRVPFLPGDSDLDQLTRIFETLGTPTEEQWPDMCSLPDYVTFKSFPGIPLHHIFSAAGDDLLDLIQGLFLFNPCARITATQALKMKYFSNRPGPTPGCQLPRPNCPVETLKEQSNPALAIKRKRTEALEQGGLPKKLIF
Chain of CAK (CDK7) (P51946 whole entry partner): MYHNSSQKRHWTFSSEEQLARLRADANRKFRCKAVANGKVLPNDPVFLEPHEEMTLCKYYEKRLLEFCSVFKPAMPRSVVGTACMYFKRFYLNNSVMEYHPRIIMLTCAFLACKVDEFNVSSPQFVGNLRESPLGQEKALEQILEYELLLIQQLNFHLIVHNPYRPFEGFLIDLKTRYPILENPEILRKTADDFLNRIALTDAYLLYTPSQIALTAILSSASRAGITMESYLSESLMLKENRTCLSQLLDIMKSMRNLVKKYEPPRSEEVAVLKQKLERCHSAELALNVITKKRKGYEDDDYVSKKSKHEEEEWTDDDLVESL
Chain of CAK (CDK7) (P51948 whole entry partner): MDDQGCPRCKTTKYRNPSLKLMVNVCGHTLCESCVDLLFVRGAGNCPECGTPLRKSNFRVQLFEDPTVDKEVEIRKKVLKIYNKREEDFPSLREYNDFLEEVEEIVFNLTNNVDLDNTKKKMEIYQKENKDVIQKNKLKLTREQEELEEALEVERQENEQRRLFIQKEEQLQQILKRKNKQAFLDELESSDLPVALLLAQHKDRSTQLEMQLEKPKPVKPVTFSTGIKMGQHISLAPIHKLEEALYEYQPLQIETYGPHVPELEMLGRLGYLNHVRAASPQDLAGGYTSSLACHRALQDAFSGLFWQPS

Compound | IC50 (CAK (CDK7)) [µM] | LC50 (concentration causing 50% net cell kill) (MCF-7 cell line) [µM] | IC (total growth inhibition) (MCF-7 cell line) [µM] | IC50 (MCF-7 cell line) [µM] | remaining activity at 0.1 µM (CDK4 [1]) [%] | IC50 (CDK4 [1]) [µM] | IC50 (MCF-7) [µM] | CC50 (MCF-7) [µM] | Growth Inhibition MCF7 TGI (MCF-7) [µM] | remaining activity at 0.1 µM (CDK 5) [%] | remaining activity at 0.1 µM (CDK2/cyclin A complex) [%] | IC50 (CDK4 [2]) [µM] | remaining activity at 0.1 µM (CDK9/cyclin T complex) [%] | IC50 (CDK2/cyclin A complex; Table 7, mean of three experiments, read-out: CDK2 kinase inhibition in vitro (IC50)) [µM]
CC(C)c1cnn2c(NCc3ccccc3)cc(NCCCCCCC#N)nc12 [ICEC0179] | 0.02 | 16 | 26 | 44 | 99 | > 1 | 35 | > 100 | >100 | 94 | 52 | > 1 | 97 | 
CC(C)c1cnn2c(NCc3ccccc3F)cc(NC(CO)CCCCCCCc3cncnc3)nc12 (stereo not drawn) [ICEC0168] | 0.12 | 25 | 55 | > 100 | 96 | > 1 | > 100 | 35 | >100 | 97 | 83 | > 1 | 91 | < 0.1
